In article PMC9031249, “New 3-Acyl Tetramic Acid Derivatives from the Deep-Sea-Derived Fungus Lecanicillium fusisporum” (Marine Drugs, 2022):

System: NF-κB
Test: NF-κB luciferase reporter assay in LPS-induced RAW264.7 cells
Assay type: cell-based
Settings: LPS induced RAW264.7 cells stably transfected with NF-κB luciferase reporter; treated 4 h, then LPS 100 ng/mL for 6 h; read-out: EC50, inhibition of NF-κB production
Protocol: The effects of 1–8 on LPS-induced NF-κB luciferase activity were detected by luciferase reporter gene assay as described earlier. Briefly, RAW264.7 cells, stably transfected with a NF-κB luciferase reporter construct, were treated with 1–8 (30 μM) and BAY11-7082 (NF-κB inhibitor, 5 μM) for 4 h, followed by stimulation with LPS (100 ng/mL^−1) for 6 h. The luciferase activity was determined using the luciferase assay system (Promega, Madison, WI, USA). The dose-dependent effects of 1–8 and BAY11-7082 on LPS induced NF-κB luciferase activity were detected by the same assay.

In order of falling EC50:
1. CC(C)=C1NC(=O)C(O)(C2C=CCC(C)O2)C1=O (stereo not drawn) [Compound 2, Lecanicilliumin B]  25.8 ± 1.3 µM
2. COC1CC(C2(O)C(=O)NC(=C(C)C)C2=O)CC(C)O1 (stereo not drawn) [Compound 6, Lecanicilliumin F]  24.7 ± 1.19 µM
3. Cc1ccc(S(=O)(=O)/C=C/C#N)cc1 [BAY11-7082, reference compound]  1.5 ± 1.4 µM

Same assay, conditions: Mus musculus, RAW264.7, LPS induced RAW264.7 cells stably transfected with NF-κB luciferase reporter; treated 4 h, then LPS 100 ng/mL for 6 h; read-out: EC50, inhibition of NF-κB production

In order of rising EC50:
1. CC(C)=C1NC(=O)C(O)(C2C=CCC(C)O2)C1=O (stereo not drawn) [Compound 1, Lecanicilliumin A]  18.5 ± 1.21 µM
2. COC1CC(C2(O)C(=O)NC(=C(C)C)C2=O)CC(C)O1 (stereo not drawn) [Compound 5, Lecanicilliumin E]  23.1 ± 1.26 µM
3. CC(C)=C1NC(=O)C(O)(CC=CCC(C)O)C1=O (stereo not drawn) [Compound 7, Lecanicilliumin G]  26.5 ± 1.12 µM

System: NO production in LPS-induced RAW264.7 cells
Test: not given
Set-up: method as in PMID 24016057, PMID 27976895
Settings: read-out: EC50, inhibition of NO production; cited from earlier work

In order of falling EC50:
1. pseurotin G  57 µM
2. pseurotin A3  34.5 µM
3. C/C=C/C1=CC=C/C(=C2\C(=O)CNC2=O)O1 [Vermelhotin]  5.35 µM
